We go through three compounds from ChEMBL document CHEMBL5727981, “ASK1 inhibitor and preparation method and use thereof” (2020).

The target of the test is T1, Mitogen-activated protein kinase kinase kinase 5 (Homo sapiens, UniProt Q99683).
T1 sequence (Q99683 whole entry): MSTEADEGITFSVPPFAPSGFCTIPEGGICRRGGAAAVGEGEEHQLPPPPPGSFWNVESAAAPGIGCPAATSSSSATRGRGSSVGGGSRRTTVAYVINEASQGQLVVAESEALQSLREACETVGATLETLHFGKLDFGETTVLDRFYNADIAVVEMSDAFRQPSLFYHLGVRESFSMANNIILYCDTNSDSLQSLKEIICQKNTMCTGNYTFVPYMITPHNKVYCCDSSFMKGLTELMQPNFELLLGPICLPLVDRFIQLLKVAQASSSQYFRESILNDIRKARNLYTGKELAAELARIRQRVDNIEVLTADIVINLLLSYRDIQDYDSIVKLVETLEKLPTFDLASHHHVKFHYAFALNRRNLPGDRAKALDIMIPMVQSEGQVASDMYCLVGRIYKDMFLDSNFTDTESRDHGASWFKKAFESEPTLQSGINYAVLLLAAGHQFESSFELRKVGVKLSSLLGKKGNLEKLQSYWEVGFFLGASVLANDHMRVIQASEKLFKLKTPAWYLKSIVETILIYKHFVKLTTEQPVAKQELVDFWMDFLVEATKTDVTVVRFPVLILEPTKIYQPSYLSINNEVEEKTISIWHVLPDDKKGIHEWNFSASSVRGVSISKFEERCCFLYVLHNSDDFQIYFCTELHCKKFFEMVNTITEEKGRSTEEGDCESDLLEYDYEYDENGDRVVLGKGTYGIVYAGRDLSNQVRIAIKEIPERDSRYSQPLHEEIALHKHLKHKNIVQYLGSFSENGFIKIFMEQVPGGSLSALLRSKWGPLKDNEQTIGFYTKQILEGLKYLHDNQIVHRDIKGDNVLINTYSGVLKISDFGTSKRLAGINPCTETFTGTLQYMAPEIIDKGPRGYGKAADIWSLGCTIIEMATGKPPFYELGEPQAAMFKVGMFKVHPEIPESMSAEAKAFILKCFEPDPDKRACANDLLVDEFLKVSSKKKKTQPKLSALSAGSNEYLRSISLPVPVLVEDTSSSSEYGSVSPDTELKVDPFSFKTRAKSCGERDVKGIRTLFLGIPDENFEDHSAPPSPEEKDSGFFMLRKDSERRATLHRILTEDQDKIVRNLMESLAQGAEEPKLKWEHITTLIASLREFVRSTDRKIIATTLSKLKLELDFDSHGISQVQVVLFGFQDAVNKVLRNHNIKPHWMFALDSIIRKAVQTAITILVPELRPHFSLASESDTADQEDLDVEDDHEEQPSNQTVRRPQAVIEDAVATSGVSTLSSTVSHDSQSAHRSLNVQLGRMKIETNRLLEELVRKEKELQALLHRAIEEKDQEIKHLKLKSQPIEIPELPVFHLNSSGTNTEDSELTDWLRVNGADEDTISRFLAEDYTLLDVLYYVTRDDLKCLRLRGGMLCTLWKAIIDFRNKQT
Kind of test: In Vitro Enzyme Activity: Reagents:Base Reaction Buffer: 20 mM Hepes (pH 7.5), 10 mM MgCl2, 1 mM EGTA, 0.02% Brij35, 0.02 mg/ml BSA, 0.1 mM Na3VO4, 2 mM DTT, 1% DMSOCompound Treatment:The test compound was formulated into a 10 mM stock solution in DMSO, which was diluted into 10 concentrations in 3-fold degression, and placed in a 384-well plate (Cyclic Olefin Copolymer LDV Echo®).Kinase Name: ASK1/MAP3K5 (Invitrogen, Carlsbad, Calif.)Type: Recombinant Human Full Length Protein, GST-taggedFinal concentration of the enzyme: 20 nMSubstrate: Myelin basic protein, MBP (Active Motif, Carlsbad, Calif.)Final concentration of the substrate: 20 μMExperimental Operations:1. The substrate was dissolved in a freshly prepared base reaction buffer.2. A desired coenzyme was added to the above substrate solution.3. The kinase was added to the substrate solution and mixed slowly.4. The solution of the test compound in DMSO was added to the kinase reaction solution and incubated at room temperature for 20 minutes.5. 33P-ATP (specific activity of 10 μCi/μl) was added to the reaction solution to initiate the reaction.6. Incubated at room temperature for 2 hours.7. A small portion of the reactants was placed onto a P-81 ion exchange filter paper.8. The filter paper was washed three times with 0.75% phosphate buffer to wash off the unbound phosphate, and then the filter paper was dried.9. The radioactivity remaining on the filter paper was determined.10. Kinase activity data was expressed as the ratio of the kinase activity remaining in the test sample to the kinase activity in the vehicle (DMSO).

On to `CC(C)c1cc2ncn(-c3cccc(-c4nncn4C(C)C)n3)c(=O)c2cc1-n1cnc(C2CC2)c1`, for which the IC50 (in general, the point on the concentration scale where inhibition reaches its midpoint) is below 50 nM.

On to `CC(C)n1cnnc1-c1cccc(N2CCc3cc(Cl)c(-n4cnc(C5CC5)c4)cc3C2=O)n1`, for which the IC50 is below 50 nM.

For the compound `CCc1cn(-c2cc3c(=O)n(-c4cccc(-c5nncn5C(C)C)n4)cnc3cc2C)cn1`, the IC50 was below 50 nM.
